Measurements: PMC7709710 (Investigational new drugs, 2015)

How the values were obtained:
[1] = test system: patients with advanced solid tumors; conditions: human, in vivo, 4 weeks
Hsp27 mRNA = Hsp27 mRNA by RT-PCR in paired tumor biopsies; type: in vivo, human; conditions: one patient, dose level 3 (80 mg/m^2/dose), pre-dose vs day 17 of cycle 1
patients = conditions: cited from earlier work
human xenograft models = conditions: several human xenograft models; cited from earlier work
advanced solid tumors = test: Tumor response by RECIST 1.1; type: in vivo, human
[2] = Plasma and urine pharmacokinetics in patients; type: in vivo, human
Hsp70 mRNA = Hsp70 mRNA by RT-PCR in paired tumor biopsies; type: in vivo, human; conditions: one patient, dose level 3 (80 mg/m^2/dose), pre-dose vs day 17 of cycle 1
Hsp90 = conditions: cited from earlier work
Hsp70 protein = Hsp70 protein in PBMCs by Western blot; type: in vivo, human
Hsp90 client proteins = test: Reverse phase protein array; type: in vivo, human
[3] = pre- to post-treatment, RP2D, subgroup 1 (patients 21, 22, 31)
[4] = pre- to post-treatment, RP2D, subgroup 2 (patients 28, 24, 30, 27, 29)
[5] = subgroup 1 only (patients 21, 22, 31)

CC(C)c1cc(C(=O)N2Cc3ccc(CN4CCN(C)CC4)cc3C2)c(O)cc1O [onalespib]
recommended phase 2 dose (RP2D) [1]: 160 mg/m^2/dose
induction of Hsp27 mRNA following treatment (Hsp27 mRNA): > 2 fold
patients with visual disturbances (patients; 120 mg/m^2/dose twice weekly): 10 of 13
maximum-tolerated-dose (patients; twice weekly dosing, days 1, 4, 8, 11, 15, 18 in 28 day cycles): 120 mg/m^2/dose
tumor growth inhibition, QDx2/week versus other schedules (human xenograft models): consistently greater tumor growth inhibition
tumor responses (advanced solid tumors; 31 patients treated): No responses were observed
longest time on study (one patient with hepatocellular carcinoma) (advanced solid tumors; in vivo): 6 cycles
urinary drug excretion ([2]; 24 h after drug administration): < 10%
plasma accumulation of drug with repeated dosing ([2]; day 1 vs day 15 of cycle 1): no significant plasma accumulation
plasma exposure to drug (AUC) versus dose ([2]; doses 20–210 mg/m^2): proportional to dose
half-life ([2]; human, plasma, intravenous): ~8 h
induction of Hsp70 mRNA following treatment (Hsp70 mRNA): > 1.5 fold
Kd (Hsp90): 710 pM
Hsp70 protein expression in PBMCs at dose level 1 (Hsp70 protein; Patient #1, dose level 1 (20 mg/m^2)): no increase in Hsp70 expression
Hsp70 protein expression in PBMC samples (Hsp70 protein; patients at dose levels 2 through 5 (RP2D)): increased Hsp70 protein expression
within-patient expression changes of 210 client proteins (Hsp90 client proteins; 9 patients, RP2D, baseline vs cycle 1 day 16 or 17): no proteins with statistically significant changes
CHK2, mean log2-normalized expression change: group 1 (Hsp90 client proteins; [3]): 1.0062
MAP2K2, mean log2-normalized expression change: group 1 (Hsp90 client proteins; [3]): −0.2937
PRAS, mean log2-normalized expression change: group 1 (Hsp90 client proteins; [3]): 0.3038
RAB11A/B, mean log2-normalized expression change: group 1 (Hsp90 client proteins; [3]): −0.5853
Raf-1, mean log2-normalized expression change: group 1 (Hsp90 client proteins; [3]): −0.2670
STAT3, mean log2-normalized expression change: group 1 (Hsp90 client proteins; [3]): −0.6103
STAT5A, mean log2-normalized expression change: group 1 (Hsp90 client proteins; [3]): 0.5016
c-Src, mean log2-normalized expression change: group 1 (Hsp90 client proteins; [3]): −0.5997
eEF-2 kinase, mean log2-normalized expression change: group 1 (Hsp90 client proteins; [3]): 0.9679
serpin E1, mean log2-normalized expression change: group 1 (Hsp90 client proteins; [3]): −3.0031
CHK2, mean log2-normalized expression change: group 2 (Hsp90 client proteins; [4]): 0.1233
MAP2K2, mean log2-normalized expression change: group 2 (Hsp90 client proteins; [4]): 0.1770
PRAS, mean log2-normalized expression change: group 2 (Hsp90 client proteins; [4]): −0.1004
RAB11A/B, mean log2-normalized expression change: group 2 (Hsp90 client proteins; [4]): 0.0826
Raf-1, mean log2-normalized expression change: group 2 (Hsp90 client proteins; [4]): −0.0855
STAT3, mean log2-normalized expression change: group 2 (Hsp90 client proteins; [4]): 0.0176
STAT5A, mean log2-normalized expression change: group 2 (Hsp90 client proteins; [4]): −0.0725
c-Src, mean log2-normalized expression change: group 2 (Hsp90 client proteins; [4]): −0.0664
eEF-2 kinase, mean log2-normalized expression change: group 2 (Hsp90 client proteins; [4]): −0.0370
serpin E1, mean log2-normalized expression change: group 2 (Hsp90 client proteins; [4]): 0.2094
decrease in CHK1 phosphorylation after treatment (Hsp90 client proteins; [5]): > 2 fold
decrease in CHK2 phosphorylation after treatment (Hsp90 client proteins; [5]): > 2 fold
